Values of other authors in the CATMoS acute toxicity set (Mansouri et al. 2021).
“And” between values parts separate entries of the source, which are not always exact repeats. Equal entries are not always repeated.

Test: rat acute oral toxicity
Details: in vivo
In the case of `COP(=O)(OC)OC1=C(Cl)C2C=CCC12` (configuration not stated), the LD50 is listed as 96 mg/kg. For `O=C(OCCOC(=O)C(Cl)(Cl)Cl)C(Cl)(Cl)Cl`, the LD50 is given as 7000 mg/kg. For `CC(C)(C)c1ccc(OP2OCC3(CO2)COP(Oc2ccc(C(C)(C)C)cc2C(C)(C)C)OC3)c(C(C)(C)C)c1` (configuration not stated), the LD50 is listed as 5580 mg/kg. In the case of `C=CCOc1ccccc1OC(=O)NC`, the LD50 is given as 200 mg/kg. For `COC1=C(OC)C(=O)C(CCCCCCCCCCO)=C(C)C1=O`, the LD50 is listed as 10000 mg/kg. For `CNCCc1ccccn1`, the LD50 is listed as 3030 mg/kg and 6110 mg/kg. For `O=C(O)Cc1ccc2c(c1)C(=O)c1ccccc1CO2`, the LD50 is given as 143 mg/kg. For `COCCNC(=O)c1nc2c(N)nc(-c3ccccc3)nc2nc1NCCOC`, the LD50 is listed as 5010 mg/kg. In the case of `CC(C)CCI`, the LD50 is listed as 1420 mg/kg. For `Fc1cc(Cl)c2nc(C(F)(F)F)[nH]c2c1`, the LD50 is listed as 1.98 mg/kg. In the case of `CCN(CC)c1ccc(N=Nc2ccc(S(=O)(=O)N(C)C)cc2)c(S(=O)(=O)NCC[n+]2ccccc2)c1`, the LD50 is listed as 5120 mg/kg. For `COC(=O)C1C2CC3c4[nH]c5cc(OC)ccc5c4CCN3CC2CC(OC2CCCCO2)C1OC` (configuration not stated), the LD50 is listed as 173 mg/kg. In the case of `CN(C)C(=O)COC(=O)Cc1ccc(OC(=O)c2ccc(NC(=N)N)cc2)cc1`, the LD50 is listed as 3000 mg/kg. In the case of `CC(SCC(=O)O)c1ccc2c(c1)Cc1ccccc1-2` (configuration not stated), the LD50 is listed as 1900 mg/kg. For `CC(C(=O)O)c1ccc(N2Cc3ccccc3C2=O)cc1` (configuration not stated), the LD50 is listed as 84 mg/kg and 60.8 mg/kg. In the case of `CN1CCC(Oc2ccc(N)cc2)(c2ccccc2)CC1`, the LD50 is listed as 410 mg/kg. For `c1ccc(C2(N3CCCCC3)CCCCC2)cc1`, the LD50 is given as 135 mg/kg. In the case of `CC(NCCO)c1ccccc1` (configuration not stated), the LD50 is given as 2830 mg/kg. In the case of `Nc1c(Br)cc([N+](=O)[O-])cc1[N+](=O)[O-]`, the LD50 is listed as 4100 mg/kg. For `CCCC(=O)OCN(C)N=O`, the LD50 is given as 800 mg/kg. In the case of `OC[C@@H](O)CN1CCN(c2ccccc2)CC1`, the LD50 is given as 887 mg/kg. In the case of `COCCOC`, the LD50 is given as 5370 mg/kg. In the case of `CN(C)S(=O)(=O)N(SC(F)(Cl)Cl)c1ccccc1`, the LD50 is listed as 500 mg/kg. For `OC/C=C/Cl`, the LD50 is given as 102 mg/kg. In the case of `Cc1ccc(C(C)C)cc1O`, the LD50 is listed as 810 mg/kg. In the case of `CC(C)OCC1CO1` (configuration not stated), the LD50 is given as 4200 mg/kg. In the case of `CN(C)CC#N`, the LD50 is given as 50 mg/kg. In the case of `CCOCCC(OCC)OCC`, the LD50 is listed as 1600 mg/kg. For `CC1=CCC2CC1C2(C)C` (configuration not stated), the LD50 is given as 3700 mg/kg. For `COc1coc(CSP(=O)(OC)OC)cc1=O`, the LD50 is listed as 23 mg/kg. In the case of `CC(C)(C)c1cc(C(=O)c2cccs2)cc(C(C)(C)C)c1O`, the LD50 is listed as 1620 mg/kg. For `CN(C)C(=O)Cl`, the LD50 is listed as 1000 mg/kg. In the case of `NC(=O)OC(CCl)Cc1ccccc1` (configuration not stated), the LD50 is listed as 490 mg/kg. In the case of `CC(C)NCC(O)c1ccc2ccccc2c1` (configuration not stated), the LD50 is given as 900 mg/kg. In the case of `O=NN(c1ccccc1)c1ccccc1`, the LD50 is given as 1820 mg/kg. In the case of `NC1CCS(=O)(=O)C1` (configuration not stated), the LD50 is listed as 17900 mg/kg. In the case of `C=C(C)CCl`, the LD50 is listed as 848 mg/kg. For `Nc1ccc(O)c(Cc2cc(N)ccc2O)c1`, the LD50 is given as 25 mg/kg. In the case of `S=C1NCNCN1`, the LD50 is given as 4.6 mg/kg. In the case of `C1CSCCS1`, the LD50 is listed as 2770 mg/kg. In the case of `Oc1c(Cl)cc2[nH]c(C(F)(F)F)nc2c1Cl`, the LD50 is given as 58 mg/kg. In the case of `CCOC(=O)Nc1ccc2c(c1)N(C(=O)CCN(CC)CC)c1ccccc1CC2`, the LD50 is listed as 138 mg/kg. In the case of `N#CSCCSC#N`, the LD50 is given as 50 mg/kg. In the case of `CCOc1ccccc1N1CCN(CCC=Cc2ccc3[nH]c(=O)ccc3c2)CC1`, the LD50 is listed as 500 mg/kg. In the case of `C=C(Cl)C(OC(C)=O)OC(C)=O`, the LD50 is listed as 320 mg/kg. For `COP(N)(=S)Oc1ccc(C(C)(C)C)cc1Cl` (configuration not stated), the LD50 is given as 820 mg/kg. In the case of `COc1ccc(CCl)cc1OC`, the LD50 is listed as 4700 mg/kg. In the case of `Nc1ccc(F)c(F)c1`, the LD50 is given as 340 mg/kg. For `COc1ccc(-c2cc(N)c3c(c2O)C(=O)c2c(N)ccc(O)c2C3=O)cc1`, the LD50 is listed as 6380 mg/kg. For `O=Cc1ccc([N+](=O)[O-])cc1`, the LD50 is given as 4700 mg/kg. In the case of `CNC(=O)Oc1ccc(C)c(N(C)C)c1`, the LD50 is given as 46 mg/kg. For `CCOc1cc(OP(=S)(OC)OC)nc(CC)n1`, the LD50 is listed as 1800 mg/kg. In the case of `O=C(O)c1cc(Oc2ccc(C(F)(F)F)cc2Cl)ccc1[N+](=O)[O-]`, the LD50 is listed as 1370 mg/kg. For `O=C(O)/C=C/c1ccc(Cn2ccnc2)cc1`, the LD50 is listed as 4160 mg/kg. For `CC(C)(C)CC(C)(C)Nc1ncnc(N(CCCCCCNC2CC(C)(C)NC(C)(C)C2)C2CC(C)(C)NC(C)(C)C2)n1`, the LD50 is given as 9910 mg/kg. In the case of `O=C(O)CCCCCCI`, the LD50 is given as 2240 mg/kg. In the case of `FC(F)(F)c1nc2c(Cl)c(Cl)ccc2[nH]1`, the LD50 is given as 13.1 mg/kg. For `CCc1cnc(C)cn1`, the LD50 is given as 900 mg/kg. In the case of `c1ccc2c(CC3=NCCN3)cccc2c1`, the LD50 is given as 1260 mg/kg. For `Cc1ccc(N)c(S(=O)(=O)O)c1`, the LD50 is listed as 11700 mg/kg. For `CC1CC(C)(O)CC(C(O)CC2CC(=O)NC(=O)C2)C1=O` (configuration not stated), the LD50 is listed as 3 mg/kg. For `O=C(O)CCCO`, the LD50 is given as 9690 mg/kg. In the case of `CCN(CC)P1(=S)OCc2cc([N+](=O)[O-])ccc2O1` (configuration not stated), the LD50 is given as 150 mg/kg. In the case of `Fc1cc(F)c2nc(C(F)(F)F)[nH]c2c1`, the LD50 is listed as 2.49 mg/kg. For `CCCCCCCCS(=O)CCCCl` (configuration not stated), the LD50 is listed as 5660 mg/kg. In the case of `COc1cc([N+](=O)[O-])ccc1N`, the LD50 is given as 997 mg/kg. In the case of `O=C(O)C(Br)Br`, the LD50 is given as 1740 mg/kg. For `ClC(Cl)C(Cl)(Cl)Cl`, the LD50 is listed as 920 mg/kg. In the case of `Nc1ccc([N+](=O)[O-])cc1Cl`, the LD50 is given as 6430 mg/kg. In the case of `c1ccc(C(c2ccccc2)(c2ccccc2)N2CCOCC2)cc1`, the LD50 is given as 83 mg/kg. In the case of `O=C(Nc1nc(C(F)(F)F)c(Cl)s1)c1cc(C(F)(F)F)cc(C(F)(F)F)c1`, the LD50 is listed as 69 mg/kg. In the case of `Nc1c(Cl)c(Cl)c2[nH]c(C(F)(F)F)nc2c1Cl`, the LD50 is listed as 23 mg/kg. In the case of `Cc1ccc(N=C=O)cc1N=C=O`, the LD50 is given as 5800 mg/kg. For `O=C(O)Cn1c(=O)sc2cccc(Cl)c21`, the LD50 is given as 3000 mg/kg. For `Nc1cnn(-c2ccccc2)c(=O)c1Br`, the LD50 is listed as 8500 mg/kg. For `Cc1cccc(/N=N\N(C)C)c1`, the LD50 is listed as 300 mg/kg. For `O=C1C(Cl)=C(Cl)C(Cl)(Cl)C1(Cl)Cl`, the LD50 is given as 178 mg/kg.
